Where two headings read alike, the source gives them in different places.
What was measured:
[1] = system: MCL-Rec1; assay: Mantle Cell Lymphoma Assay: cytotoxicity, Rec-1; format: cell-based; details: 72 hrs; for viability at 0.004 µM / viability at 0.037 µM / viability at 0.11 µM / viability at 0.33 µM / viability at 1 µM / viability at 3 µM: Homo sapiens, read-out: Cell Viability (%)
In short: (§1)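 Early-passage (2-4) cells were purified by Ficoll-Histopaque before treatment. Cell concentration and viability were measured on a Vi-Cell counter after harvesting on day 3.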

[2] = system: Bmi-1; assay: Sandwich ELISA Assay (Bmi-1 ELISA in HT-1080 cells); format: cell-based, human
In short: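 Lysate Bmi-1 was quantified against a recombinant GST-Bmi-1 standard (0-8000 pg/mL) by sandwich ELISA read at OD450 with OD570 reference. The ELISA used mouse monoclonal capture, rabbit anti-Bmi-1, HRP anti-rabbit IgG and TMB. Before lysis, HT-1080 cells seeded at 8000/well were exposed to compounds for 40-48 h at 37°C with 0.5% final DMSO.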

[3] = system: Jeko, Mino and Rec-1 cells; assay: cells; format: cell-based; details: 72 h, read-out: decrease in cell viability
[4] = system: Bmi-1; assay: Cell Model Assay: Bmi-1 expression in HT1080; format: cell-based, human; details: HT1080 (fibrosarcoma)
Description: Using assay conditions known to those skilled in the art, the ability of the compounds described herein to reduce Bmi-1 expression in HT1080 (fibrosarcoma), U87-MG (glioblastoma), T98G (glioblastoma), K562 (chronic myelogenous leukemia) and KG1 (acute myelogenous leukemia) cell lines was tested (at test compound concentrations calculated from the ELISA assay data shown in Example 1) compared to puromycin as a control to provide the EC50 values shown in Table 2. The term “ND” means that data was not determined.

[5] = system: MCL-Mino; assay: Mantle Cell Lymphoma Assay: cytotoxicity, Mino; format: cell-based; details: MCL-Mino, 72 hrs; for viability at 0.004 µM / viability at 0.037 µM / viability at 0.11 µM / viability at 0.33 µM / viability at 1 µM / viability at 3 µM: Homo sapiens, read-out: Cell Viability (%)
In short: as §1

[6] = system: MM cell line; assay: Multiple Myeloma Assay; format: cell-based; details: 72 hrs in culture

| Structure (SMILES) | viability at 0.004 µM ([1]; MCL-Rec1, 0.004 μM) | viability at 0.037 µM ([1]; MCL-Rec1, 0.037 μM) | viability at 0.11 µM ([1]; MCL-Rec1, 0.11 μM) | viability at 0.33 µM ([1]; MCL-Rec1, 0.33 μM) | viability at 1 µM ([1]; MCL-Rec1, 1 μM) | viability at 3 µM ([1]; MCL-Rec1, 3 μM) | Cell Concentration (×10^6) ([1]; MCL-Rec1, 0.004 μM) | Cell Concentration (×10^6) ([1]; MCL-Rec1, 0.037 μM) | Cell Concentration (×10^6) ([1]; MCL-Rec1, 0.11 μM) | Cell Concentration (×10^6) ([1]; MCL-Rec1, 0.33 μM) | Cell Concentration (×10^6) ([1]; MCL-Rec1, 1 μM) | Cell Concentration (×10^6) ([1]; MCL-Rec1, 3 μM) | IC50 [2] | EC50 [4] | viability at 0.004 µM ([5]; 0.004 μM) | viability at 0.037 µM ([5]; 0.037 μM) | viability at 0.11 µM ([5]; 0.11 μM) | viability at 0.33 µM ([5]; 0.33 μM) | viability at 1 µM ([5]; 1 μM) | viability at 3 µM ([5]; 3 μM) | also measured |
| --- | --- | --- | --- | --- | --- | --- | --- | --- | --- | --- | --- | --- | --- | --- | --- | --- | --- | --- | --- | --- | --- |
| COc1cc(Br)c(Nc2nc(-c3c(C)nc4ncccn34)cs2)c(Br)c1 [Cpd 1, N-(2,6-dibromo-4-methoxyphenyl)-4-(2-methylimidazo[1,2-a]pyrimidin-3-yl)thiazol-2-amine] | 91.9 ± 0.5% | 91.7 ± 0.4% | 91.7 ± 0.2% | 90.9 ± 0.2% | 85 ± 0.6% | 56.3 ± 0.4% | 1.66 ± 0.12 ×10^6 | 1.74 ± 0.05 ×10^6 | 1.73 ± 0.02 ×10^6 | 1.66 ± 0.01 ×10^6 | 0.96 ± 0.08 ×10^6 | 0.32 ± 0.01 ×10^6 | < 0.5 µM | 0.39 µM | 94.7 ± 0.2% | 95.1 ± 0.2% | 94.6 ± 0.2% | 94.5 ± 0.3% | 89.4 ± 0.4% | 59.3 ± 0.5% | cytotoxicity at 0.08 µM ([3]; Jeko, Mino and Rec-1 cells, 80 nM, 75 nM and 80 nM, after 3 days of treatment): 70 to 90%; Cell Concentration (×10^6) ([5]; 0.004 μM): 1.53 ± 0.07 ×10^6; Cell Concentration (×10^6) ([5]; 0.037 μM): 1.53 ± 0.05 ×10^6; Cell Concentration (×10^6) ([5]; 0.11 μM): 1.55 ± 0.02 ×10^6; Cell Concentration (×10^6) ([5]; 0.33 μM): 1.50 ± 0.02 ×10^6; Cell Concentration (×10^6) ([5]; 1 μM): 0.74 ± 0.02 ×10^6; Cell Concentration (×10^6) ([5]; 3 μM): 0.20 ± 0.01 ×10^6; Cell Concentration, MM cell line ([6]; dose 0.004 μM): 1.02 ± 0.03 ×10^6; viability at 0.004 µM ([6]; dose 0.004 μM): 90.07 ± 0.34%; Cell Concentration, MM cell line ([6]; dose 0.037 μM): 1.06 ± 0.01 ×10^6; viability at 0.037 µM ([6]; dose 0.037 μM): 89.53 ± 0.71%; Cell Concentration, MM cell line ([6]; dose 0.11 μM): 1.13 ± 0.02 ×10^6; viability at 0.11 µM ([6]; dose 0.11 μM): 90.33 ± 0.1%; Cell Concentration, MM cell line ([6]; dose 0.33 μM): 1.10 ± 0.02 ×10^6; viability at 0.33 µM ([6]; dose 0.33 μM): 90.63 ± 0.28%; Cell Concentration, MM cell line ([6]; dose 1 μM): 0.54 ± 0.03 ×10^6; viability at 1 µM ([6]; dose 1 μM): 85.4 ± 0.58%; Cell Concentration, MM cell line ([6]; dose 3 μM): 0.39 ± 0.02 ×10^6; viability at 3 µM ([6]; dose 3 μM): 79.03 ± 0.45% |
| COc1ccc(Nc2nc(-c3c(C)nc4ncccn34)cs2)cc1 [Cpd 14, N-(4-methoxyphenyl)-4-(2-methylimidazo[1,2-a]pyrimidin-3-yl)thiazol-2-amine] | 88.1 ± 0.88% | 84.5 ± 0.66% | 34.4 ± 3.25% | 8.93 ± 0.15% | 9.83 ± 0.33% | 9.5 ± 0.35% | 1.52 ± 0.02 ×10^6 | 1.22 ± 0.02 ×10^6 | 0.24 ± 0.03 ×10^6 | 0.05 ± 0.00 ×10^6 | 0.05 ± 0.00 ×10^6 | 0.05 ± 0.00 ×10^6 | < 0.5 µM | 0.003 µM | 92.27 ± 0.38% | 64.5 ± 16.6% | 40.6 ± 1.91% | 18.1 ± 1.78% | 13.5 ± 1.85% | 14.1 ± 0.28% | cytotoxicity at 0.08 µM [3]: 70 to 90%; Cell Concentration (×10^6) ([5]; 0.004 μM): 1.26 ± 0.01 ×10^6; Cell Concentration (×10^6) ([5]; 0.037 μM): 0.66 ± 0.24 ×10^6; Cell Concentration (×10^6) ([5]; 0.11 μM): 0.23 ± 0.01 ×10^6; Cell Concentration (×10^6) ([5]; 0.33 μM): 0.06 ± 0.01 ×10^6; Cell Concentration (×10^6) ([5]; 1 μM): 0.05 ± 0.01 ×10^6; Cell Concentration (×10^6) ([5]; 3 μM): 0.05 ± 0.00 ×10^6; Cell Concentration, MM cell line ([6]; dose 0.004 μM): 0.84 ± 0.01 ×10^6; viability at 0.004 µM ([6]; dose 0.004 μM): 84.53 ± 0.4%; Cell Concentration, MM cell line ([6]; dose 0.037 μM): 0.22 ± 0.00 ×10^6; viability at 0.037 µM ([6]; dose 0.037 μM): 54.4 ± 0.98%; Cell Concentration, MM cell line ([6]; dose 0.11 μM): 0.21 ± 0.01 ×10^6; viability at 0.11 µM ([6]; dose 0.11 μM): 54.9 ± 2.79%; Cell Concentration, MM cell line ([6]; dose 0.33 μM): 0.21 ± 0.01 ×10^6; viability at 0.33 µM ([6]; dose 0.33 μM): 57.7 ± 1.33%; Cell Concentration, MM cell line ([6]; dose 1 μM): 0.24 ± 0.01 ×10^6; viability at 1 µM ([6]; dose 1 μM): 60.9 ± 1.26%; Cell Concentration, MM cell line ([6]; dose 3 μM): 0.25 ± 0.01 ×10^6; viability at 3 µM ([6]; dose 3 μM): 59.9 ± 1.32% |

Source: patent US8680113B2, “BMI-1 protein expression modulators” (PTC Therapeutics, Inc., priority 2008, dated 2014)
